Earlier results on two compounds are cited in patent US20240058412A1, “MODIFIED RELEASE FORMULATION COMPRISING WITHANOLIDES” (INVENTIA HEALTHCARE LIMITED, priority 2021, published 2024).

The conditions of the data set: mice plasma, oral Withania somnifera extract 1000 mg/kg.

As a reminder, the half-life is how long it takes for the measured level to halve. On to `CC1=C(CO)C(=O)O[C@@H]([C@@H](C)[C@H]2CC[C@H]3[C@@H]4C[C@H]5O[C@]56[C@@H](O)C=CC(=O)[C@]6(C)[C@H]4CC[C@]23C)C1` [withaferin-A], for which the half-life is 59.92 ± 15.90 min.

Take `CC1=C(C)C(=O)O[C@@H]([C@](C)(O)[C@H]2CC[C@H]3[C@@H]4[C@@H]5O[C@@H]5[C@@]5(O)CC=CC(=O)[C@]5(C)[C@H]4CC[C@]23C)C1` [withanolide-A]: the half-life is 45.22 ± 9.95 min.
